Earlier results in patent US11202786B2, “Synthetic bile acid compositions and methods” (ALLERGAN SALES, LLC, priority 2007, dated 2021).

What was measured:
albumin = albumin (Homo sapiens, UniProt P02768); conditions: 0.4 mg/mL deoxycholate (comparable to the fasting state), in the presence of 26 mg/mL of albumin
[1] = neutral pH

Chain of albumin (P02768 25-609): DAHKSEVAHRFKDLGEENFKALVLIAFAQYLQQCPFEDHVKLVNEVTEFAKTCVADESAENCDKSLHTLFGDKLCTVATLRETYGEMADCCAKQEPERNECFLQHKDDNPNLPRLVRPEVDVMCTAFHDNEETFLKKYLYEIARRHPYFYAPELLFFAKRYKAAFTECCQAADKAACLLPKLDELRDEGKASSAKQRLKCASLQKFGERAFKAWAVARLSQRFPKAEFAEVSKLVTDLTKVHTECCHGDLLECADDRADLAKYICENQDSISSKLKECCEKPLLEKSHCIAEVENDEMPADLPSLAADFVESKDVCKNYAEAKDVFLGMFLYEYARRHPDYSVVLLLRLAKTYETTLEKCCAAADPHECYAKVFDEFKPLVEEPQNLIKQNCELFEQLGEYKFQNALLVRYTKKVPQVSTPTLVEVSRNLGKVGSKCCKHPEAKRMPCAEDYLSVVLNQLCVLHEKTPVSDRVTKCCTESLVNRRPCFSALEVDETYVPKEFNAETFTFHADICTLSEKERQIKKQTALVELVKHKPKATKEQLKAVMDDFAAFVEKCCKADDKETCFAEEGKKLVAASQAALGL

C[C@H](CCC(=O)[O-])[C@H]1CC[C@H]2[C@@H]3CC[C@@H]4C[C@H](O)CC[C@]4(C)[C@H]3C[C@H](O)[C@]12C.[Na+] [Deoxycholate, sodium deoxycholate]
bound to albumin (albumin): 98%
solubility in acetone (acetone, compared with alcohol): even less soluble
soluble in water (water): 333 mg/mL
critical micelle concentration [1]: approximately 2.4 mg/mL
